The values below come from US20210071180A1, “MICRORNA 584-5P COMPOSITIONS AND METHODS FOR TREATING CANCER” (BOARD OF REGENTS, THE UNIVERSY OF TEXAS SYSTEM, priority 2018, published 2021).

Type in all cases: cell-based
The test system of one data set is MB cells. As to the kind of experiment: 53BP1 nuclear foci immunofluorescence (DNA strand breaks). Conditions: vs scrambled-transfected MB cells. Here is the method: (§1) FIG. 13C-D show representative immunofluorescence images showing 53BP1 foci in D556Med cells transfected with miR-NC or miR-584-5p mimic (C) or scramble-siRNA or eIF4E3/HDAC1-siRNAs (D) and treated with or without 10 Gy of IR.
Bar graphs next to images show average number of 53BP1 foci/cell. The p-values were determined by two-way ANOVA followed by Sidak's multiple-comparisons test. Error bars represent mean±SEM. Because miR-584-5p induces apoptosis, it was reasoned that DNA strand breaks induced by miR-584-5p and eIF4E3/HDAC1 silencing may not be properly repaired. To confirm those findings, a functional assay was performed to monitor homologous recombination (HR) because HR-dependent events repair IR-induced double-strand breaks in G2 phase. The ISceI-based DR-GFP reporter assay, which measures the frequency of double-strand break repair by HR (Gunn, A., Bennardo, N., Cheng, A. & Stark, J. M. Journal of Biological Chemistry 286, 42470-42482, (2011); Pierce, A. J., Johnson, R. D., Thompson, L. H. & Jasin, M. Genes & Development 13, 2633-2638, (1999); and Stark, J. M., Pierce, A. J., Oh, J., Pastink, A. & Jasin, M. Molecular and Cellular Biology 24, 9305-9316, (2004)), was used. […] The p-values were calculated using either Student t-tests (mimic) or one-way ANOVA followed by Dunnett's multiple-comparisons test (siRNAs). […]

The subject of a further data set is U20S-DR-GFP cells. As to the kind of experiment: ISceI-based DR-GFP reporter assay of homologous recombination. As to conditions: cells stably expressing DR-GFP reporter, FACS. The procedure:
Bar graphs next to images show average number of 53BP1 foci/cell. The p-values were determined by two-way ANOVA followed by Sidak's multiple-comparisons test. Error bars represent mean±SEM. Because miR-584-5p induces apoptosis, it was reasoned that DNA strand breaks induced by miR-584-5p and eIF4E3/HDAC1 silencing may not be properly repaired. To confirm those findings, a functional assay was performed to monitor homologous recombination (HR) because HR-dependent events repair IR-induced double-strand breaks in G2 phase. The ISceI-based DR-GFP reporter assay, which measures the frequency of double-strand break repair by HR (Gunn, A., Bennardo, N., Cheng, A. & Stark, J. M. Journal of Biological Chemistry 286, 42470-42482, (2011); Pierce, A. J., Johnson, R. D., Thompson, L. H. & Jasin, M. Genes & Development 13, 2633-2638, (1999); and Stark, J. M., Pierce, A. J., Oh, J., Pastink, A. & Jasin, M. Molecular and Cellular Biology 24, 9305-9316, (2004)), was used. […] U20S-DR-GFP cells were transfected with miR-NC or miR-584-5p or scramble-siRNA or eIF4E3/HDAC1-siRNAs followed by transfection with pCAGGS vector with ISceI/GFP. I-SceI expression leads to double-strand breaks that HR repairs by using the wild-type GFP, resulting in GFP^+ cells. […] The p-values were calculated using either Student t-tests (mimic) or one-way ANOVA followed by Dunnett's multiple-comparisons test (siRNAs). […]

For data set [1], the system named is activated CHK1, ATR, BRCA1. Briefly: Western blot of checkpoint proteins. Conditions: miR-584-5p mimic-transfected MB cells. Here is the method: as §1
Immunofluorescence and Western blot analysis Immunofluorescence analyses was carried out on cells fixed in 4% paraformaldehyde (Imam, J. S. et al. PLoS One 7, e52397, (2012)). Western blot analysis was performed on cell extracts from miR-584-5p mimic- or target gene siRNA-transfected MB cell lines in accordance with previously reported studies (Rajamanickam, S. et al. Clin Cancer Res 22, 3524-3536, (2016); and Imam, J. S. et al. PLoS One 7, e52397, (2012). Antibodies against horseradish peroxidase-conjugated β-actin (1:50,000; #A5316), β-tubulin (#T8328), and glyceraldehyde-3-phosphate dehydrogenase (GAPDH) (1:25,000; #G9295) were purchased from Sigma-Aldrich. Antibody against eIF4E3 (1:1000; #17282-1-AP) was purchased from Proteintech. Antibodies against HDAC1 (1:1000; #5356), pCHK1 (1:1000; #2348), and CHK1 (1:1000; #2360) were purchased from Cell Signaling Technology (Danvers, Mass., USA). Antibodies against MYC (1:1000; #Sc-40), BRCA1 (1:1000; #6954), and ATR (1:1000; #sc-515173) were purchased from Santa Cruz. Antibody against 53BP1 (1:300; #A300-272AT) was purchased from Bethyl Laboratories. […]

The subject of another data set is neural stem cell markers. As to the kind of experiment: qPCR analysis of neural stem cell markers. Conditions: miR-584-5p mimic-transfected cells. The procedure: Several research groups have posited the presence of tumor-initiating cells in MBs (Manoranjan, B. et al. Pediatr Res 71, 516-522, (2012)). Moreover, the tumor-initiating cells in general have not responded to radiation and chemotherapy drugs (Manoranj an, B. et al. Pediatr Res 71, 516-522, (2012)). Therefore, it was tested whether miR-584 may inhibit MB tumor-initiating cell proliferation. Consistent with the characteristics of tumor-initiating cells, MB cells cultured in serum-free stem cell media formed tumor spheres that were serially passaged for many cycles (FIG. 14A). Bar graphs show number and size of medullospheres obtained from D556Med cells transfected with miR-NC or miR-584-5p mimic. The p-value was calculated using a standard Student t-test. Error bars represent mean±SEM. […] The p-value was calculated using one-way ANOVA followed by Sidak's multiple-comparisons test. Error bars represent mean±SEM. These findings are highly significant because, this study is one of the first to propose a role for miR-584-5p and its target genes in regulating MB stem cell proliferation.

For a further data set, the system named is normal neural stem cell. Briefly: Normal neural stem cell growth.

Take “miR-584-5p: microRNA mimic; nucleotide sequence UUAUGGUUUGCCUGGGACUGAG (SEQ ID NO: 1); purchased from Thermofisher (chemistry not given here)”: the 53BP1 foci result in the data set on MB cells is “significantly more 53BP1 foci”. Besides, the “GFP-positive cells (homologous recombination events)” value with U20S-DR-GFP cells is “significantly fewer GFP-positive cells”. Besides, in data set [1], the “levels of activated CHK1 and ATR, as well as BRCA1” value was “significantly lower levels”. Also, the “levels of neural stem cell markers” value in the data set on neural stem cell markers was “significantly reduced”. Moreover, in the data set on normal neural stem cell, the “normal neural stem cell growth” value was “without affecting normal neural stem cell growth”.
